# Reference: paper PMC9101642 (Molecules, 2022)
# Tested on: MCF-7 cells
# Test: Cell cycle distribution by flow cytometry
# Assay type: cell-based, human
# Conditions: 0.1 nM, 24 h
Structure (SMILES),Cell Cycle (%) G0/G1,Cell Cycle (%) G2/M,Cell Cycle (%) S
"C[C@]12CC[C@@H]3c4ccc(O)cc4CC[C@H]3[C@@H]1CC[C@@H]2O [Compound E2, 17β-estradiol, reference compound]","17.34 ± 0.35 *^,‡,§ %","54.51 ± 0.57 *^,‡,§ %","28.15 ± 0.52 *^,‡,§ %"

# Same assay, conditions: 1 nM, 24 h
Structure (SMILES),Cell Cycle (%) G0/G1,Cell Cycle (%) G2/M,Cell Cycle (%) S
"C[C@]12CC[C@@H]3c4ccc(O)cc4CC[C@H]3[C@@H]1CC[C@@H]2O [Compound E2, 17β-estradiol, reference compound]","25.34 ± 0.36 *^,‡,§ %","45.14 ± 0.33 *^,‡,§ %","29.52 ± 0.46 *^,‡,§ %"

# Biological target: estrogen receptor α
# Test: not given
# Conditions: Table S1, PDB ligands; cited from earlier work
row,Structure (SMILES),pKi
1,CC1CCN(CCOc2ccc(C(=O)c3c(-c4ccc(O)cc4)sc4cc(O)ccc34)cc2)CC1 [Compound 2R6W],9.4
2,O=C(c1ccc(OCCN2CCCC2)cc1)c1c(-c2ccc(O)cc2)sc2cc(O)ccc12 [Compound 2R6Y],9.5

# Same assay, conditions: cited from earlier work
row,Structure (SMILES),pIC50
1,Oc1ccc([C@@H]2Sc3cc(O)ccc3O[C@@H]2c2ccc(OCCN3CCCCC3)cc2)cc1 [Compound 1SJ0],9.09
2,CC1(O)CCC2c3ccc4cc(O)ccc4c3CCC21C (stereo not drawn) [Compound 2B1Z],7.10

# Same assay, conditions: crystal test set TSCRY (WT and MUT complexes); cited from earlier work
row,Structure (SMILES),pKi
1,CC(C)(c1ccc(O)cc1)c1ccc(O)cc1 [Compound 3UU7],8.79
2,Oc1ccc(C(c2ccc(O)cc2)(C(F)(F)F)C(F)(F)F)cc1 [Compound 3UUA],8.79
3,Oc1ccc(C(=C(Cl)Cl)c2ccc(O)cc2)cc1 [Compound 3UUC],5.70
4,OCc1cc(Br)c(-c2ccc(O)cc2)c(-c2ccoc2)c1 [Compound 4DMA],5.60
5,C[C@H]1CCC[C@H](O)CCCCCc2cc(O)cc(O)c2C(=O)O1 [Compound 4MG8],10.00
6,O=C(c1ccc(O)cc1O)c1ccc(O)cc1O [Compound 4MGC],7.00
7,C[C@H]1CCC[C@H](O)CCC/C=C/c2cc(O)cc(O)c2C(=O)O1 [Compound 4TUZ],10.00

# Same assay, conditions: ligands of mutated (MUT) ERα complexes, training set; cited from earlier work
row,Structure (SMILES),pIC50
1,Oc1ccc(-c2n[nH]c3cc(O)ccc23)c(O)c1 [Compound 2QA6],7.30
2,CC1CCN(CCOc2ccc(C(=O)c3c(-c4ccc(O)cc4)sc4cc(O)ccc34)cc2)CC1 [Compound 2R6W],8.60
3,O=C(c1ccc(OCCN2CCCC2)cc1)c1c(-c2ccc(O)cc2)sc2cc(O)ccc12 [Compound 2R6Y],8.90
4,Cc1cc(F)ccc1-c1c(Cc2ccc(/C=C/C(=O)O)cc2)c2ccc(O)cc2oc1=O [Compound 5AK2],8.40

# Same assay, conditions: ligands of wild-type (WT) ERα complexes, training set; cited from earlier work
row,Structure (SMILES),pIC50
1,CC/C(=C(\c1ccccc1)c1ccc(/C=C/C(=O)O)cc1)c1ccccc1 [Compound 1R5K],7.40
2,Oc1ccc2c(c1)CCN(c1ccccc1)[C@H]2c1ccc(N2CCC3CCCCN3C2)cc1 (stereo partly drawn) [Compound 1XQC],7.20

# Same assay, conditions: modeled test set TSMOD1; cited from earlier work
row,Structure (SMILES),pIC50
1,O=c1cc(-c2ccccc2)oc2cc(O)c(O)c(O)c12 [Baicalein],4.71
2,Cc1ccccc1N=Cc1cn(-c2ccccc2)nc1-c1ccccc1 [Compound I11-4a1a],4.33
3,Cc1cccc(C)c1N=Cc1cn(-c2ccccc2)nc1-c1ccccc1 [Compound I11-4a2],4.13
4,Cc1ccc(N=Cc2cn(-c3ccccc3)nc2-c2ccccc2)cc1 [Compound I11-4a3b],4.25
5,Brc1ccc(N=Cc2cn(-c3ccccc3)nc2-c2ccccc2)cc1 [Compound I11-4a5],5.52
6,Cc1ccc(N=Cc2cn(-c3ccccc3)nc2-c2ccccc2)cc1[N+](=O)[O-] [Compound I11-4a8],5.4
7,Clc1ccccc1CN=Cc1cn(-c2ccccc2)nc1-c1ccccc1 [Compound I11-4a9],4.89
8,FC(F)(F)c1ccccc1CN=Cc1cn(-c2ccccc2)nc1-c1ccccc1 [Compound I11-4a10],3.61
9,Cc1ccccc1N=Cc1cn(-c2ccc([N+](=O)[O-])cc2)nc1-c1ccccc1 [Compound I11-4b1],3.58
10,Cc1ccc(N=Cc2cn(-c3ccc([N+](=O)[O-])cc3)nc2-c2ccccc2)cc1 [Compound I11-4b2],3.58
11,O=[N+]([O-])c1ccc(-n2cc(C=Nc3ccc(Cl)cc3)c(-c3ccccc3)n2)cc1 [Compound I11-4b3],3.61
12,Cc1ccc(N=Cc2cn(-c3ccc([N+](=O)[O-])cc3)nc2-c2ccccc2)cc1[N+](=O)[O-] [Compound I11-4b6],3.63
13,COc1ccc(-c2cc(=O)c3c(O)c(OC)c(OC)cc3o2)cc1O [Eupatorin],5.09
14,O=c1c(O)c(-c2ccc(O)c(O)c2)oc2cc(O)ccc12 [Fisetin],5.38
15,O=c1c(O)c(-c2ccccc2)oc2cc(O)cc(O)c12 [Galangin],4.81
16,COc1ccc([C@@H]2CC(=O)c3c(O)cc(O)cc3O2)cc1O [Hesperetin],4.4
17,O=C1C[C@@H](c2ccc(O)cc2)Oc2cc(O)cc(O)c21 [Naringenin],4.18
18,O=c1c(O)c(-c2ccc(O)c(O)c2)oc2cc(O)cc(O)c12 [Quercetin],4.76

# Same assay, conditions: modeled test set TSMOD2; cited from earlier work
row,Structure (SMILES),pKi
1,Cc1c(-c2ccc(O)cc2)nn(-c2ccc(O)cc2)c1-c1ccc(O)cc1 [Compound I3-I1],7.25
2,CCc1c(-c2ccc(O)cc2)nn(-c2ccc(O)cc2)c1-c1ccc(O)cc1 [Compound I3-I2],9.08
3,CCCc1c(-c2ccc(O)cc2)nn(-c2ccc(O)cc2)c1-c1ccc(O)cc1 [Compound I3-I3],9.23
4,CCCCc1c(-c2ccc(O)cc2)nn(-c2ccc(O)cc2)c1-c1ccc(O)cc1 [Compound I3-I4],8.68
5,Cc1c(-c2ccc(O)cc2)nn(-c2ccc(O)cc2)c1-c1ccc(OCCN2CCCCC2)cc1 [Compound I3-I-A1],7.57
6,CCc1c(-c2ccc(O)cc2)nn(-c2ccc(O)cc2)c1-c1ccc(OCCN2CCCCC2)cc1 [Compound I3-I-A2],8.60
7,CCCc1c(-c2ccc(O)cc2)nn(-c2ccc(O)cc2)c1-c1ccc(OCCN2CCCCC2)cc1 [Compound I3-I-A3],8.36
8,CCc1c(-c2ccc(O)cc2)nn(-c2ccc(O)cc2)c1-c1ccc(OCCN2CCOCC2)cc1 [Compound I3-I-B],8.49
9,Cc1c(-c2ccc(O)cc2)nn(-c2ccc(O)cc2)c1-c1ccc(OCCN2CCCC2)cc1 [Compound I3-I-C1],7.60
10,CCc1c(-c2ccc(O)cc2)nn(-c2ccc(O)cc2)c1-c1ccc(OCCN2CCCC2)cc1 [Compound I3-I-C2],8.72
11,CCc1c(-c2ccc(O)cc2)nn(-c2ccc(O)cc2)c1-c1ccc(OCCN(C)C)cc1 [Compound I3-I-D],8.48
12,CCN(CC)CCOc1ccc(-c2c(C)c(-c3ccc(O)cc3)nn2-c2ccc(O)cc2)cc1 [Compound I3-I-E1],8.42
13,CCc1c(-c2ccc(O)cc2)nn(-c2ccc(O)cc2)c1-c1ccc(OCCN(CC)CC)cc1 [Compound I3-I-E2],8.74
14,CCc1c(-c2ccc(O)cc2)nn(-c2ccc(O)cc2)c1-c1ccc(OCCN2CCCC2=O)cc1 [Compound I3-I-F],8.64
15,CCc1c(-c2ccc(O)cc2)nn(-c2ccc(O)cc2)c1-c1ccc(OCC(O)CO)cc1 (stereo not drawn) [Compound I3-I-G],8.37
16,CC(C)CNc1nc(NCC(C)C)nc(NCC(C)C)n1 [Compound I4-1a],3.19
17,CCCNc1nc(NCCC)nc(NCCC)n1 [Compound I4-1b],3.10
18,c1ccc(CNc2nc(NCc3ccccc3)nc(NCc3ccccc3)n2)cc1 [Compound I4-1c],3.39
19,O=C(C=CC=Cc1ccccc1)CCc1ccccc1 [Compound I6-1],6.19
20,CN(C)c1ccc(C=CC=CC(=O)CCc2ccc(O)cc2)cc1 [Compound I6-10],3.63
21,COc1ccc(CCC(=O)C=CC=Cc2ccc(O)c(OC)c2)cc1 [Compound I6-12],5.86
22,COc1cc(C=CC=CC(=O)CCc2ccccc2)ccc1O [Compound I6-14],6.01
23,COc1ccc(CCC(=O)C=CC=Cc2ccc([N+](=O)[O-])cc2)cc1 [Compound I6-15],5.63
24,O=C(C=CC=Cc1ccc([N+](=O)[O-])cc1)CCc1ccccc1 [Compound I6-16],6.29
25,COc1ccc(CCC(=O)C=CC=Cc2ccccc2)cc1 [Compound I6-17],5.83
26,COc1ccc(CCC(=O)C=CC=Cc2ccc(N(C)C)cc2)cc1 [Compound I6-18],5.66
27,CN(C)c1ccc(C=CC=CC(=O)CCc2ccccc2)cc1 [Compound I6-19],6.04

# Same assay, conditions: modeled test set TSMOD3; cited from earlier work
row,Structure (SMILES),pRBA
1,O=C1CC(c2ccccc2)Oc2ccc(O)cc21 (stereo not drawn) [6-Hydroxyflavanone],6.05
2,O=c1cc(-c2ccccc2)oc2ccc(O)cc12 [6-Hydroxyflavone],6.40
3,O=c1cc(-c2ccc(O)cc2)oc2ccc(O)cc12 [-Dihydroxyflavone],3.82
4,O=c1c(O)c(-c2ccc(O)cc2)oc2ccc(O)cc12 [-Trihydroxy flavone],3.35
5,O=c1c(-c2ccc(O)c(O)c2)coc2cc(O)ccc12 [-Trihydroxy isoflavone],5.35
6,O=c1cc(-c2ccccc2)oc2cc(O)c(O)c(O)c12 [Baicalein],6.05
7,COc1ccc(-c2coc3cc(O)cc(O)c3c2=O)cc1 [Biochanin A],5.37
